The text below walks through data of patent publication US20240115744A1, “FIBRIN-BINDING COMPOUNDS FOR IMAGING AND TREATMENT” (Collagen Medical, LLC, priority 2019, published 2024).

Where two headings read alike, the source gives them in different places. Where a SMILES comes first, the peptide text is derived from it. Bridges are numbered along the chain shown (N, C = ends). [ ]: non-standard residue; d: D form. The star is where a group is joined. Tyr(3-Cl) = N[C@@H](Cc1ccc(O)c(Cl)c1)C(=O)O; Nicotinoyl(6-F) = O=C(c1ccc(F)nc1)*; Hyp = O=C(O)[C@@H]1C[C@@H](O)CN1 Bounds are passed on as bounds.

In assay [1] the target is T1, soluble fibrin fragment DD(E) (Homo sapiens, UniProt P02671+P02675+P02679, DEL433-453).
T1 construct: partial plasmin digestion of purified fibrin gel followed by size-exclusion chromatographic purification; made in house
Nature of the assay: Fluorescence polarization DD(E) binding/displacement assay. As to conditions: for Ki: displacement of TRITC-labelled peptide from DD(E), TBS·Ca with 2% DMSO, estimated uncertainty ±10%; for Kd: sub-micromolar affinity, read-out: affinity (Kd) to fibrin as assessed by DD(E) assay. The protocol:
DD(E) was prepared using a published procedure which involved partial plasmin digestion of purified fibrin gel followed by size-exclusion chromatographic purification, and purity was assessed by SDS-PAGE. Peptides modified at the N-terminus with tetramethyl-rhodamine (TRITC) dye bind to DD(E). Direct fluorescent peptide binding to DD(E) was measured by a fluorescence polarization (FP) assay. The anisotropy (robs) of the fluorescently labeled peptides binding to DD(E) (0-20 μM) was measured in Tris buffered saline (50 mM Tris, 100 mM NaCl and 2 mM CaCl2) at fixed compound concentrations, and the data were fit to a single site model (Eq. 1) to obtain the dissociation constant (Kd) for the DD(E)·(fluorescent peptide) complex.
Displacement of the fluorescent peptide by non-fluorescent compound was measured to determine inhibition constants (Ki). In the presence of an inhibitor, an apparent dissociation constant for the fluorescent compound (Kd app) is determined using Eq. 2. The inhibition constant Ki is related to Kd app by Eq. 2, wherein Kd is the true dissociation constant of the fluorescent compound measured in the absence of inhibitor.
Non-labeled peptide binding to DD(E) was measured by a compound displacement assay, where a DD(E)/Fl·pep complex formed at fixed concentrations of DD(E) and Fl·pep was titrated with increasing concentrations of unlabeled compound. The compound was assayed by mixing DD(E) (4.0 μM, 10 μL) and TRITC (0.1 μM, 10 μL) with increasing concentrations of competing peptide (0.4-100 μM, 20 μL) in TBS·Ca with 2% DMSO in a final volume of 40 μL. Fluorescence polarization of the samples (10 μL, triplicate wells) in ascending concentrations was measured in a 384-well microplate (Corning flat black plate), using a Tecan Infinite 200 Pro fluorescence microplate reader equipped with fluorescence polarization filters, a 535 nm excitation filter and a 590 nm fluorescence emission filter. Average polarization (mP units) readings for each dilution of the compound of interest was converted to anisotropy (r) using Eq. 3.
The data defined a displacement curve (robs vs. [Peptide]), and the inhibitory binding constant, Ki, was determined by least squares fitting of the data (estimated uncertainty in Ki±10%). See Table 2 for the Ki values for the Compounds from Example 1.

For assay [2], the target named is soluble fibrin fragment DD(E). Nature of the assay: fluorescence polarization, displacement of the TRITC peptide from DD(E).

T1 sequence (P02671 130-216 limits assumed, stated change not applied): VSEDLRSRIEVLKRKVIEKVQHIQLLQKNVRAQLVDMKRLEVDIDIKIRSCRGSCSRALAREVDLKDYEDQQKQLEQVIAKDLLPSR
T1 sequence (P02675 164-491 limits assumed, stated change not applied): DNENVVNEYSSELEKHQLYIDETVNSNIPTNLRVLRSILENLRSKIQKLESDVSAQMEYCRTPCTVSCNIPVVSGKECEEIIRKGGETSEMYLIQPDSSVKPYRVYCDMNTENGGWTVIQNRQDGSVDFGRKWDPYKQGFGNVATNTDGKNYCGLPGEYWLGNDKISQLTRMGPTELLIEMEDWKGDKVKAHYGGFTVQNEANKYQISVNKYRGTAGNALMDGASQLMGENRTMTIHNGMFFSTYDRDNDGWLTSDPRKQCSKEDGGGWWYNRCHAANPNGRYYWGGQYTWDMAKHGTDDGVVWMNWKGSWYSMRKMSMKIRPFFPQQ
T1 sequence (P02679 114-432 limits assumed, stated change not applied): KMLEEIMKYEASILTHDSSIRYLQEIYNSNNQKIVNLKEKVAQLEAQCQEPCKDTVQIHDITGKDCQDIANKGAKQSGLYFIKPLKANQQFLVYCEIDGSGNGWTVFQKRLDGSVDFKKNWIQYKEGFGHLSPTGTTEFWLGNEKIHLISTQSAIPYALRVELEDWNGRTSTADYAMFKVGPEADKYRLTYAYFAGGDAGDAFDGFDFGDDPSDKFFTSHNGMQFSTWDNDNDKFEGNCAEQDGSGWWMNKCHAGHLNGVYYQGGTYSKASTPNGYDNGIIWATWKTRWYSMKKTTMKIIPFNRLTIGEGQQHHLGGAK
T1 sequence (P02671 36-97 partner limits assumed): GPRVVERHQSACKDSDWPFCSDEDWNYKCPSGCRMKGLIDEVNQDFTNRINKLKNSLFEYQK
T1 sequence (P02675 45-152 partner limits assumed): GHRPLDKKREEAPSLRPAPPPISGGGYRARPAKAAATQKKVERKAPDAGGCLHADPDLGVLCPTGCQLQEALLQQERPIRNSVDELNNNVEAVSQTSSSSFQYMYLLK
T1 sequence (P02679 27-88 partner limits assumed): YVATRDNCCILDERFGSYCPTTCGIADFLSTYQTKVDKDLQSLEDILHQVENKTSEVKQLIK

Take `CC[C@H](C)[C@H](NC(=O)[C@H](Cc1c[nH]cn1)NC(=O)[C@@H]1CSSC[C@H](NC(=O)[C@@H](CCC(=O)O)NC(=O)[C@@H](Cc2ccc(O)cc2)NC(=O)c2ccc(F)nc2)C(=O)N2C[C@H](O)C[C@H]2C(=O)N[C@@H](Cc2ccc(O)c(Cl)c2)C(=O)NCC(=O)N[C@@H](CC(C)C)C(=O)N1)C(=O)N[C@H](CC(C)C)C(N)=O` [Compound 3, -y-e-C-Hyp-Y(3-Cl)-G-L-C-H-I-1-] ({Nicotinoyl(6-F)}-[dY][dE]C[Hyp][Tyr(3-Cl)]GLCHI[dL]-NH2; disulfide 3-8): the inhibitory constant (Ki) in assay [1] (read-out: Ki) was 140 nM. Further, in assay [1], the Kd is < 600 nM.

In the case of `CC[C@H](C)[C@H](NC(=O)[C@H](Cc1c[nH]cn1)NC(=O)[C@@H]1CSSC[C@H](NC(=O)[C@@H](CCC(=O)O)NC(=O)[C@H](Cc2ccc(O)cc2)NC(=O)c2ccc(F)nc2)C(=O)N2C[C@H](O)C[C@H]2C(=O)N[C@@H](Cc2ccc(O)c(Cl)c2)C(=O)NCC(=O)N[C@@H](CC(C)C)C(=O)N1)C(=O)N[C@@H](CCC(N)=O)C(N)=O` [Compound 4, -Y-e-C-Hyp-Y(3-Cl)-G-L-C-H-I-Q-] ({Nicotinoyl(6-F)}-Y[dE]C[Hyp][Tyr(3-Cl)]GLCHIQ-NH2; disulfide 3-8), in assay [1] (read-out: Ki), the inhibition constant (Ki) is 180 nM. Besides, the dissociation constant Kd in assay [1] is < 600 nM.

`CC[C@H](C)[C@H](NC(=O)[C@H](Cc1c[nH]cn1)NC(=O)[C@@H]1CSSC[C@H](NC(=O)[C@@H](CCC(=O)O)NC(=O)[C@@H](Cc2ccc(O)cc2)NC(=O)c2ccc(F)nc2)C(=O)N2C[C@H](O)C[C@H]2C(=O)N[C@@H](Cc2ccc(O)c(Cl)c2)C(=O)NCC(=O)N[C@@H](CC(C)C)C(=O)N1)C(=O)N[C@@H](CCC(N)=O)C(N)=O` [Compound 2, -y-e-C-Hyp-Y(3-Cl)-G-L-C-H-I-Q-] ({Nicotinoyl(6-F)}-[dY][dE]C[Hyp][Tyr(3-Cl)]GLCHIQ-NH2; disulfide 3-8): the Ki in assay [1] (read-out: Ki) is 70 nM. Also, the Kd in assay [1] was < 600 nM.

With `CC[C@H](C)[C@H](NC(=O)[C@H](Cc1ccc(O)cc1)NC(=O)[C@@H]1CSSC[C@H](NC(=O)[C@@H](CCC(=O)O)NC(=O)[C@@H](Cc2ccc(O)cc2)NC(=O)c2ccc(F)nc2)C(=O)N2C[C@H](O)C[C@H]2C(=O)N[C@@H](Cc2ccc(O)c(Cl)c2)C(=O)NCC(=O)N[C@@H](CC(C)C)C(=O)N1)C(=O)N[C@H](CCC(N)=O)C(N)=O` [Compound 11, -y-e-C-Hyp-Y(3-Cl)-G-L-C-Y-I-q-] ({Nicotinoyl(6-F)}-[dY][dE]C[Hyp][Tyr(3-Cl)]GLCYI[dQ]-NH2; disulfide 3-8), the inhibitory constant (Ki) in assay [1] (read-out: Ki) is 1010 nM.

As to `CC[C@H](C)[C@H](NC(=O)[C@H](Cc1ccc(O)cc1)NC(=O)[C@@H]1CSSC[C@H](NC(=O)[C@@H](CCC(=O)O)NC(=O)[C@@H](Cc2ccc(O)cc2)NC(=O)c2ccc(F)nc2)C(=O)N2C[C@H](O)C[C@H]2C(=O)N[C@@H](Cc2ccc(O)c(Cl)c2)C(=O)NCC(=O)N[C@@H](CC(C)C)C(=O)N1)C(=O)N[C@H](CC(C)C)C(N)=O` [Compound 9, -y-e-C-Hyp-Y(3-Cl)-G-L-C-Y-I-1-] ({Nicotinoyl(6-F)}-[dY][dE]C[Hyp][Tyr(3-Cl)]GLCYI[dL]-NH2; disulfide 3-8), in assay [1] (read-out: Ki), the Ki was 730 nM.

As for `CC[C@H](C)[C@H](NC(=O)[C@H](Cc1ccc(O)cc1)NC(=O)[C@@H]1CSSC[C@H](NC(=O)[C@@H](CCC(=O)O)NC(=O)[C@H](Cc2ccc(O)cc2)NC(=O)c2ccc(F)nc2)C(=O)N2C[C@H](O)C[C@H]2C(=O)N[C@@H](Cc2ccc(O)c(Cl)c2)C(=O)N[C@@H](CC(=O)O)C(=O)N[C@@H](CC(C)C)C(=O)N1)C(=O)N[C@@H](CCC(N)=O)C(N)=O` [Compound 12, -Y-e-C-Hyp-Y(3-Cl)-D-L-C-Y-I-Q-] ({Nicotinoyl(6-F)}-Y[dE]C[Hyp][Tyr(3-Cl)]DLCYIQ-NH2; disulfide 3-8), the Ki in assay [1] (read-out: Ki) was 1200 nM.

Take `CC[C@H](C)[C@H](NC(=O)[C@H](Cc1c[nH]cn1)NC(=O)[C@@H]1CSSC[C@H](NC(=O)[C@@H](CCC(=O)O)NC(=O)[C@H](Cc2ccc(O)cc2)NC(=O)c2ccc(F)nc2)C(=O)N2C[C@H](O)C[C@H]2C(=O)N[C@@H](Cc2ccc(O)c(Cl)c2)C(=O)NCC(=O)N[C@@H](CC(C)C)C(=O)N1)C(=O)N[C@H](CCC(N)=O)C(N)=O` [Compound 5, -Y-e-C-Hyp-Y(3-Cl)-G-L-C-H-I-q-] ({Nicotinoyl(6-F)}-Y[dE]C[Hyp][Tyr(3-Cl)]GLCHI[dQ]-NH2; disulfide 3-8): the Ki in assay [1] (read-out: Ki) is 230 nM. Moreover, the equilibrium dissociation constant (Kd) in assay [1] is < 600 nM.

Take `CC[C@H](C)[C@H](NC(=O)[C@H](Cc1ccc(O)cc1)NC(=O)[C@@H]1CSSC[C@H](NC(=O)[C@@H](CCC(=O)O)NC(=O)[C@H](Cc2ccc(O)cc2)NC(=O)c2ccc(F)nc2)C(=O)N2C[C@H](O)C[C@H]2C(=O)N[C@@H](Cc2ccc(O)c(Cl)c2)C(=O)NCC(=O)N[C@@H](CC(C)C)C(=O)N1)C(=O)N[C@H](CC(C)C)C(N)=O` [Compound 10, -Y-e-C-Hyp-Y(3-Cl)-G-L-C-Y-I-1-] ({Nicotinoyl(6-F)}-Y[dE]C[Hyp][Tyr(3-Cl)]GLCYI[dL]-NH2; disulfide 3-8): in assay [1] (read-out: Ki), the inhibition constant (Ki) is 950 nM.

As to `CC[C@H](C)[C@H](NC(=O)[C@H](Cc1c[nH]cn1)NC(=O)[C@@H]1CSSC[C@H](NC(=O)[C@@H](CCC(=O)O)NC(=O)[C@H](Cc2ccc(O)cc2)NC(=O)c2ccc(F)nc2)C(=O)N2C[C@H](O)C[C@H]2C(=O)N[C@@H](Cc2ccc(O)c(Cl)c2)C(=O)NCC(=O)N[C@@H](CC(C)C)C(=O)N1)C(=O)N[C@H](CC(C)C)C(N)=O` [Compound 8, -Y-e-C-Hyp-Y(3-Cl)-G-L-C-H-I-1-] ({Nicotinoyl(6-F)}-Y[dE]C[Hyp][Tyr(3-Cl)]GLCHI[dL]-NH2; disulfide 3-8), the Ki in assay [1] (read-out: Ki) is 640 nM.

`CC[C@H](C)[C@H](NC(=O)[C@H](Cc1ccc(O)cc1)NC(=O)[C@@H]1CSSC[C@H](NC(=O)[C@@H](CCC(=O)O)NC(=O)[C@H](Cc2ccc(O)cc2)NC(=O)c2ccc(F)nc2)C(=O)N2C[C@H](O)C[C@H]2C(=O)N[C@@H](Cc2ccc(O)c(Cl)c2)C(=O)NCC(=O)N[C@@H](CC(C)C)C(=O)N1)C(=O)N[C@H](CCC(N)=O)C(N)=O` [Compound 13, -Y-e-C-Hyp-Y(3-Cl)-G-L-C-Y-I-q-] ({Nicotinoyl(6-F)}-Y[dE]C[Hyp][Tyr(3-Cl)]GLCYI[dQ]-NH2; disulfide 3-8): the Ki in assay [1] (read-out: Ki) is 1250 nM.

For the molecule “-Y-h-C-Hyp-Y(3-Cl)-G-L-C-Y-I-Q- ({Nicotinoyl(6-F)}-Y[dH]C[Hyp][Tyr(3-Cl)]GLCYIQ-NH2; disulfide 3-8; not fully specified; printed as -Y-h-C-Hyp-Y(3-Cl)-G-L-C-Y-I-Q-) [Compound 15, N-terminal modified peptide (F is fluorine), C-terminal amide]”, the Ki entry in assay [1] was “No”.

For `CC[C@H](C)[C@H](NC(=O)[C@H](Cc1ccc(O)cc1)NC(=O)[C@@H]1CSSC[C@H](NC(=O)[C@@H](CCC(=O)O)NC(=O)[C@H](Cc2ccc(O)cc2)NC(=O)c2ccc(F)nc2)C(=O)N2C[C@H](O)C[C@H]2C(=O)N[C@@H](Cc2ccc(O)c(Cl)c2)C(=O)N[C@H](CC(=O)O)C(=O)N[C@@H](CC(C)C)C(=O)N1)C(=O)N[C@@H](CCC(N)=O)C(N)=O` [Compound 14, -Y-e-C-Hyp-Y(3-Cl)-d-L-C-Y-I-Q-] ({Nicotinoyl(6-F)}-Y[dE]C[Hyp][Tyr(3-Cl)][dD]LCYIQ-NH2; disulfide 3-8), the Ki in assay [1] (read-out: Ki) is 2760 nM.

B1: Compound 11 (peptide)
peptide: {Nicotinoyl(6-F)}-[dY][dE]C[Hyp][Tyr(3-Cl)]GLCYI[dQ]-NH2
modifications: disulfide 3-8
SMILES: CC[C@H](C)[C@H](NC(=O)[C@H](Cc1ccc(O)cc1)NC(=O)[C@@H]1CSSC[C@H](NC(=O)[C@@H](CCC(=O)O)NC(=O)[C@@H](Cc2ccc(O)cc2)NC(=O)c2ccc(F)nc2)C(=O)N2C[C@H](O)C[C@H]2C(=O)N[C@@H](Cc2ccc(O)c(Cl)c2)C(=O)NCC(=O)N[C@@H](CC(C)C)C(=O)N1)C(=O)N[C@H](CCC(N)=O)C(N)=O
In assay [2], B1 returned an inhibition constant (Ki) of 1010 nM.

B2: Compound 10 (peptide)
peptide: {Nicotinoyl(6-F)}-Y[dE]C[Hyp][Tyr(3-Cl)]GLCYI[dL]-NH2
modifications: disulfide 3-8
SMILES: CC[C@H](C)[C@H](NC(=O)[C@H](Cc1ccc(O)cc1)NC(=O)[C@@H]1CSSC[C@H](NC(=O)[C@@H](CCC(=O)O)NC(=O)[C@H](Cc2ccc(O)cc2)NC(=O)c2ccc(F)nc2)C(=O)N2C[C@H](O)C[C@H]2C(=O)N[C@@H](Cc2ccc(O)c(Cl)c2)C(=O)NCC(=O)N[C@@H](CC(C)C)C(=O)N1)C(=O)N[C@H](CC(C)C)C(N)=O
Regarding B2, the Ki in assay [2] was 950 nM.
